According to US5449680A, “2,2 disubstituted glycerol and glycerol-like compounds, compositions and methods of use” (Schering Corporation, priority 1992, dated 1995):

System: PAF-induced platelet aggregation
Test: PAF-induced platelet aggregation in human platelet-rich plasma (PRP), in vitro PAF antagonism assay
Type: cell-based
Conditions: 37° C, 2 min preincubation, PAF 1-5×10^-8 M, read-out: Percent Inhibition
Method: These test procedures are standard tests used to determine PAF antagonistic activity and to evaluate the usefulness of said compounds for counteracting the biological effects of PAF. The in vitro assay is a simple screening test, while the in vivo test mimics clinical use of the compounds described herein.
Preparation of platelet-rich plasma (PRP): Human blood (50 ml) was collected from healthy male donors in an anticoagulant solution (5 ml) containing sodium citrate (3.8%) and dextrose (2%). Blood was centrifuged at 110× g for 15 min. and the supernatant (PRP) carefully transferred into a polypropylene tube. Platelet-poor-plasma (PPP) was prepared by centrifuging PRP at 12,000× g for 2 min. (Beckman Microfuge B). PRP was used within 3 hours of drawing the blood.
Platelet Aggregation Assay: When an aggregating agent such as PAF is added to PRP, platelets aggregate. An aggregometer quantifies this aggregation by measuring light transmission through PRP and comparing to PPP. The aggregation assays were performed using a dual channel aggregometer (Model 440, Chrono-Log Corp., Havertown, Penn.). PRP (0.45 ml)in aggregometer cuvettes was continually stirred (37° C). Solutions of test compounds or vehicle were added to the PRP, and after incubation for 2 min., 10-15 […] aliquots of PAF solution were added so as to achieve a final concentration of 1-5×10^-8 M. Incubations were continued until the increase in light transmission reached a maximum (usually 2 min). Values for inhibition were calculated by comparing maximal aggregation obtained in the absence and the presence of the compound. For each experiment, a standard PAF antagonist such as alprazolam was used as a positive internal control. The inhibitory concentration (IC50)is the concentration of compound in micromoles at which 50% of the aggregation is inhibited, as measured by the light transmission through each sample of PRP as compared to PPP.

SMILES: CCCCCCCCCCCCCCCCCCN(C)C(=O)OCC(C)(COP(=O)([O-])OCC[n+]1ccsc1)OC (centres unmarked)
- inhibition at 5 µM (Dose 5 μM): 50%

SMILES: CCCCCCCCCCCCCCCCCCNC(=O)OCC(C)(COP(=O)([O-])OCC[n+]1ccsc1)OC (centres unmarked)
- inhibition at 10 µM: 50%

SMILES: CCCCCCCCCCCCCCCCOCC(C)(COC(=O)OCC[N+](C)(C)C)OC (centres unmarked)
- inhibition at 100 µM (Dose 100 μM): 100%

SMILES: CCCCCCCCCCCCCCCCOCC(C)(COC(=O)OCC[N+]1(C)CCCC1)OC (centres unmarked)
- inhibition at 50 µM: 32%

SMILES: CCCCCCCCCCCCCCCCCCN(C)C(=O)OCC(C)(COP(=O)([O-])OCC[n+]1ccccc1)OC (centres unmarked)
- inhibition at 50 µM: 43%

SMILES: CCCCCCCCCCCCCCCCCCN(C)C(=O)OCC(C)(COCCCCCCC[n+]1ccsc1)OC (centres unmarked)
- inhibition at 50 µM: 100%

SMILES: CCCCCCCCCCCCCCCCCCN(C)C(=O)OCC(CC)(COP(=O)([O-])OCC[n+]1ccsc1)OC (centres unmarked)
- inhibition at 50 µM: 100%

SMILES: CCCCCCCCCCCCCCCCCCN(C)C(=O)OCC(CC)(COP(=O)(O)OCCn1ccnc1)OC (centres unmarked)
- inhibition at 50 µM: 23%

SMILES: CCCCCCCCCCCCCCCCOCC(C)(COC(=O)OCC[n+]1ccccc1)OC (centres unmarked)
- inhibition at 50 µM: 68%

SMILES: CCCCCCCCCCCCCCCCCCN(C)C(=O)OCC(COP(=O)([O-])OCC[n+]1ccsc1)(OC)C(C)C (centres unmarked)
- inhibition at 50 µM: 100%

SMILES: CCCCCCCCCCCCCCCCCCN(C)C(=O)OCC(C)(COCCCCCCC[n+]1ccsc1)SC (centres unmarked)
- inhibition at 50 µM: 100%

SMILES: CCCCCCCCCCCCCCCCCCN(C)C(=O)OCC(C)(COC(=O)NCC[N+](C)(C)C)OC (centres unmarked)
- inhibition at 50 µM: 67%

SMILES: CCCCCCCCCCCCCCCCCCN(C)C(=O)OCC(C)(COC(=O)NCC[n+]1ccsc1)OC (centres unmarked)
- inhibition at 50 µM: 97%

SMILES: CCCCCCCCCCCCCCCCCCN(C)C(=O)OCC(C)(COCCCCCCC[n+]1ccsc1)[S+](C)[O-] (centres unmarked)
- inhibition at 50 µM: 100%

SMILES: CCCCCCCCCCCCCCCCOCC(C)(COC(=O)NCC[n+]1ccsc1)OC (centres unmarked)
- inhibition at 50 µM: 44%

SMILES: CCCCCCCCCCCCCCCCCCN(C)C(=O)OCC(C)(COCCCC[n+]1ccsc1)OC (centres unmarked)
- inhibition at 10 µM: 100%

SMILES: CCCCCCCCCCCCCCCCCCN(C)C(=O)OCC(C)(COC(=O)N(CC[n+]1ccccc1)C(C)=O)OC (centres unmarked)
- inhibition at 10 µM: 100%

SMILES: CCCCCCCCCCCCCCCCCCN(C)C(=O)OCC(C)(COCCCCCCCN1CCSC1)OC (centres unmarked)
- inhibition at 50 µM: 10%

SMILES: CCCCCCCCCCCCCCCCCCN(C)C(=O)OCC(C)(COCCCCCCCn1cc[n+](C)c1)OC (centres unmarked)
- inhibition at 10 µM: 93%

SMILES: CCCCCCCCCCCCCCCCCCN(C)C(=O)OCC(C)(COCCCCCCC[N+]1(C)CCSC1)OC (centres unmarked)
- inhibition at 10 µM: 93%

SMILES: CCCCCCCCCCCCCCCCCCN(C)C(=O)OCC(C)(COCCCCCCCn1cnc(CC(=O)OCc2ccccc2)c1)OC (centres unmarked)
- inhibition at 50 µM: 19%

SMILES: CCCCCCCCCCCCCCCCCCN(C)C(=O)OCC(C)(COCCCCCCCn1cnc(CC(=O)O)c1)OC (centres unmarked)
- inhibition at 50 µM: 19%

SMILES: CCCCCCCCCCCCCCCCCCN(C)C(=O)OCC(C)(COCCCCCCCOC(=O)C1CSCN1)OC (centres unmarked)
- inhibition at 50 µM: 3%

SMILES: CCCCCCCCCCCCCCCCCCN(C)C(=O)OCC(C)(COCc1ccc(C[n+]2ccsc2)cc1)OC (centres unmarked)
- inhibition at 50 µM: 100%

SMILES: CCCCCCCCCCCCCCCCCCN(C)C(=O)OCC(C)(COCCCCCCC[n+]1ccsc1)S(C)(=O)=O (centres unmarked)
- inhibition at 50 µM: 100%

SMILES: CCCCCCCCCCCCCCCCCCN(C)C(=O)OCC(C)(CC)COCCCCCCC[n+]1ccsc1 (centres unmarked)
- inhibition at 50 µM: 100%

SMILES: CCCCCCCCCCCCCCCCCCN(C)C(=O)OCC(C)(COCCCCCCCOC(=O)C(N)CSC)OC (centres unmarked)
- inhibition at 50 µM: 28%

SMILES: CCCCCCCCCCCCCCCCCCN(C)C(=O)OCC(C)(CNC(=O)OCC[n+]1ccccc1)OC (centres unmarked)
- inhibition at 50 µM: 100%

SMILES: CCCCCCCCCCCCCCCCCCN(C)C(=O)OCC(C)(COC(=O)NCCCCC[n+]1ccsc1)OC (centres unmarked)
- inhibition at 50 µM: 100%

SMILES: CCCCCCCCCCCCCCCCCCN(C)C(=O)OCC(C)(CNC(=O)OCC[N+](C)(C)C)OC (centres unmarked)
- inhibition at 50 µM: 83%

SMILES: CCCCCCCCCCCCCCCCCCN(C)C(=O)OCC(C)(CNS(=O)(=O)CCn1ccnc1)OC (centres unmarked)
- inhibition at 50 µM: 12%

SMILES: CCCCCCCCCCCCCCCCCCN(C)C(=O)OCC(C)(COCCCCCCCn1ccnc1N)OC (centres unmarked)
- inhibition at 50 µM: 17%

SMILES: COC(C)(COCCCCCCC[n+]1ccsc1)COC(=O)Nc1ccccc1 (centres unmarked)
- inhibition at 50 µM: 100%

SMILES: CC(COCc1ccc(CN2CCSC2=N)cc1)(COC(=O)Nc1ccccc1)S(C)(=O)=O (centres unmarked)
- inhibition at 50 µM: 90%

SMILES: COC(C)(COCCCCCCCN1CCSC1=N)COC(=O)Nc1ccc(F)cc1F (centres unmarked)
- inhibition at 50 µM: 91%
